Experimental data as given in patent US10167262B2, “Herbicidal substituted 3-arylpyrazoles” (FMC CORPORATION, priority 2014, dated 2019).

Legend:
Assay type in all cases: in vivo
[1] = test system: field bindweed (Convolvulus arvensis); experiment: Test E pre-/postemergence greenhouse test, plant response rating 0-100; conditions: scale 0 to 100; for Plant response rating, Field Bindweed: Postemergence; for Field Bindweed plant response rating: Preemergence
Text: (§1) Seeds of plant species selected from corn (Zea mays), soybean (Glycine max), velvetleaf (Abutilon theophrasti), lambsquarters (Chenopodium album), wild poinsettia (Euphorbia heterophylla), palmer pigweed (Amaranthus palmeri), waterhemp (common waterhemp, Amaranthus rudis), surinam grass (Brachiaria decumbens), large (Lg) crabgrass (Digitaria sanguinalis), Brazilian crabgrass (Digitaria horizontalis), fall panicum (Panicum dichotomiflorum), giant foxtail (Setaria faberii), green foxtail (Setaria viridis), goosegrass (Eleusine indica), johnsongrass (Sorghum halepense), ragweed (common ragweed, Ambrosia elatior), barnyardgrass (Echinochloa crus-galli), sandbur (southern sandbur, Cenchrus echinatus), arrowleaf sida (Sida rhombifolia), Italian ryegrass (Lolium multiflorum), dayflower (Virginia (VA) dayflower, Commelina virginica), field bindweed (Convolvulus arvensis), morningglory (Ipomoea coccinea), nightshade (eastern black nightshade, Solanum ptycanthum), kochia (Kochia scoparia), yellow nutsedge (Cyperus esculentus), smartweed (ladysthumb smartweed, Polygonum persicaria), cocklebur (common cocklebur, Xanthium strumarium), and hairy beggarticks (Bidens pilosa), were planted into a silt loam soil and treated preemergence with test chemicals formulated in a non-phytotoxic solvent mixture which included a surfactant.
(§2) At the same time, plants from these crop and weed species and also waterhemp_RES1, (ALS & Triazine resistant common waterhemp, Amaranthus rudis), and waterhemp_RES2, (ALS & HPPD resistant common waterhemp, Amaranthus rudis) were planted in pots containing Redi-Earth® planting medium (Scotts Company, 14111 Scottslawn Road, Marysville, Ohio 43041) comprising spaghnum peat moss, vermiculite, wetting agent and starter nutrients were treated with postemergence applications of test chemicals formulated in the same manner. Plants ranged in height from 2 to 18 cm for postemergence treatments (1- to 4-leaf stage).
(§3) Treated plants and controls were maintained in a greenhouse for 14 to 21 days, after which time all species were compared to controls and visually evaluated. Plant response ratings, summarized in Table E, are based on a scale of 0 to 100 where 0 is no effect and 100 is complete control. A dash (-) response means no test result.

[2] = test system: dayflower (Virginia (VA) dayflower, Commelina virginica); experiment: as above; conditions: scale 0 to 100; for Plant response rating, Dayflower, VA: Postemergence; for Dayflower, VA plant response rating: Preemergence
Text: as §1, §2, §3

[3] = test system: Italian ryegrass (Lolium multiflorum); experiment: as above; conditions: scale 0 to 100; for Plant response rating, Ryegrass, Italian: Postemergence; for Ryegrass, Italian plant response rating: Preemergence
Text: as §1, §2, §3

[4] = test system: barnyardgrass (Echinochloa crus-galli); experiment: Test C pre-/postemergence greenhouse test, plant response rating 0-100
Method in brief: (§4)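 Visual 0–100 control scores, taken 13 to 15 days post-application in a greenhouse, reflect treatment preemergence (seed in loam soil with sand) or postemergence (2–18 cm plants in peat moss, vermiculite medium). A dash marks no result.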

[5] = test system: waterhemp (common waterhemp, Amaranthus rudis); experiment: as above
Method in brief: as §4

[6] = test system: waterhemp_RES2, (ALS & HPPD resistant common waterhemp, Amaranthus rudis); experiment: Test E postemergence greenhouse test, plant response rating 0-100; conditions: scale 0 to 100
Protocol: as §2, §3

[7] = test system: barnyardgrass (Echinochloa crus-galli); experiment: Test B flooded paddy test, plant response rating 0-100; conditions: Flood, 250 g ai/ha; scale 0 to 100 (0 no effect, 100 complete control); 13 to 15 days
Method in brief: (§5)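 Pots were flooded to 3 cm above the soil surface at treatment, compound applied directly to the paddy water, and that depth held throughout. Plants were kept in a greenhouse for 13 to 15 days, then visually rated against untreated controls.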

rice (Oryza sativa) = experiment: as above; conditions: Flood, 250 g ai/ha; scale 0 to 100 (0 no effect, 100 complete control); 13 to 15 days
Method in brief: as §5

[8] = test system: ducksalad (Heteranthera limosa); experiment: as above; conditions: Flood, 250 g ai/ha; scale 0 to 100 (0 no effect, 100 complete control); 13 to 15 days
Method in brief: as §5

[9] = test system: sedge, umbrella (small-flower umbrella sedge, Cyperus difformis); experiment: as above; conditions: Flood, 250 g ai/ha; scale 0 to 100 (0 no effect, 100 complete control); 13 to 15 days
Method in brief: as §5

[10] = Postemergence, 125 g ai/ha, scale 0 to 100
[11] = Postemergence, 250 g ai/ha, scale 0 to 100
[12] = Postemergence, 500 g ai/ha, scale 0 to 100

O=C(c1ccccc1)c1cn(S(=O)(=O)CCl)nc1-c1cc(Cl)cc(Cl)c1 [Compound 1]
Plant response rating, Field Bindweed ([1]; 31 g ai/ha): 0 | Plant response rating, Field Bindweed ([1]; 62 g ai/ha): 0 | Plant response rating, Field Bindweed ([1]; 125 g ai/ha): 0 | Plant response rating, Field Bindweed ([1]; 250 g ai/ha): 0 | Plant response rating, Field Bindweed ([1]; 500 g ai/ha): 0 | Field Bindweed plant response rating ([1]; 31 g ai/ha): 0 | Field Bindweed plant response rating ([1]; 62 g ai/ha): 0 | Field Bindweed plant response rating ([1]; 125 g ai/ha): 0 | Field Bindweed plant response rating ([1]; 250 g ai/ha): 0 | Field Bindweed plant response rating ([1]; 500 g ai/ha): 0 | Plant response rating, Dayflower, VA ([2]; 31 g ai/ha): 0 | Plant response rating, Dayflower, VA ([2]; 62 g ai/ha): 0 | Plant response rating, Dayflower, VA ([2]; 125 g ai/ha): 0 | Plant response rating, Dayflower, VA ([2]; 250 g ai/ha): 0 | Plant response rating, Dayflower, VA ([2]; 500 g ai/ha): 0 | Dayflower, VA plant response rating ([2]; 31 g ai/ha): 0 | Dayflower, VA plant response rating ([2]; 125 g ai/ha): 0 | Dayflower, VA plant response rating ([2]; 250 g ai/ha): 0 | Dayflower, VA plant response rating ([2]; 500 g ai/ha): 0 | Plant response rating, Ryegrass, Italian ([3]; 31 g ai/ha): 0 | Plant response rating, Ryegrass, Italian ([3]; 62 g ai/ha): 0 | Plant response rating, Ryegrass, Italian ([3]; 125 g ai/ha): 0 | Plant response rating, Ryegrass, Italian ([3]; 250 g ai/ha): 0 | Plant response rating, Ryegrass, Italian ([3]; 500 g ai/ha): 0 | Ryegrass, Italian plant response rating ([3]; 31 g ai/ha): 0 | Ryegrass, Italian plant response rating ([3]; 62 g ai/ha): 0 | Ryegrass, Italian plant response rating ([3]; 125 g ai/ha): 0 | Ryegrass, Italian plant response rating ([3]; 250 g ai/ha): 0 | Ryegrass, Italian plant response rating ([3]; 500 g ai/ha): 0 | Plant response rating (0 to 100), Barnyardgrass ([4]; Postemergence, 31 g ai/ha): 0 | Plant response rating (0 to 100), Barnyardgrass ([4]; Postemergence, 62 g ai/ha): 0 | Plant response rating, Barnyardgrass [4, 10]: 0 | Plant response rating, Barnyardgrass [4, 11]: 0 | Plant response rating (0 to 100), Waterhemp ([5]; Postemergence, 62 g ai/ha): 90 | Plant response rating (0 to 100), Waterhemp ([5]; Postemergence, 125 g ai/ha): 90 | Plant response rating, Waterhemp [5, 11]: 98 | Plant response rating, Waterhemp_RES2 ([6]; 31 g ai/ha): 40 | Plant response rating, Waterhemp_RES2 ([6]; 125 g ai/ha): 35 | Plant response rating, Waterhemp_RES2 ([6]; 250 g ai/ha): 98 | Plant response rating, Waterhemp_RES2 ([6]; 500 g ai/ha): 98 | Plant response rating, Barnyardgrass [7]: 0 | Plant response rating, Rice (rice (Oryza sativa)): 0 | Plant response rating, Ducksalad [8]: 0 | Plant response rating, Sedge, Umbrella [9]: 0

CCOC(OCC)(c1cccs1)c1c[nH]nc1-c1cc(Cl)cc(Cl)c1 [Compound 27]
Plant response rating (0 to 100), Barnyardgrass ([4]; Postemergence, 62 g ai/ha): 0 | Plant response rating, Barnyardgrass [4, 10]: 0 | Plant response rating, Barnyardgrass [4, 11]: 0 | Plant response rating, Barnyardgrass [4, 12]: 10 | Plant response rating, Barnyardgrass ([4]; Preemergence, 62 g ai/ha): 0 | Plant response rating, Barnyardgrass ([4]; Preemergence, 125 g ai/ha): 0 | Plant response rating, Barnyardgrass ([4]; Preemergence, 250 g ai/ha): 0 | Plant response rating, Barnyardgrass ([4]; Preemergence, 500 g ai/ha): 0 | Plant response rating (0 to 100), Waterhemp ([5]; Postemergence, 62 g ai/ha): 95 | Plant response rating (0 to 100), Waterhemp ([5]; Postemergence, 125 g ai/ha): 98 | Plant response rating, Waterhemp [5, 11]: 98 | Plant response rating, Waterhemp [5, 12]: 100 | Plant response rating, Waterhemp ([5]; Preemergence, 62 g ai/ha): 100 | Plant response rating, Waterhemp ([5]; Preemergence, 125 g ai/ha): 100 | Plant response rating, Waterhemp ([5]; Preemergence, 250 g ai/ha): 100 | Plant response rating, Waterhemp ([5]; Preemergence, 500 g ai/ha): 100 | Plant response rating, Barnyardgrass [7]: 0 | Plant response rating, Rice (rice (Oryza sativa)): 0 | Plant response rating, Ducksalad [8]: 0 | Plant response rating, Sedge, Umbrella [9]: 0

Fc1ccc(NN=C(c2ccccc2)c2c[nH]nc2-c2cc(Cl)cc(Cl)c2)cc1 [Compound 35]
Plant response rating, Field Bindweed ([1]; 31 g ai/ha): 0 | Plant response rating, Field Bindweed ([1]; 62 g ai/ha): 0 | Plant response rating, Field Bindweed ([1]; 125 g ai/ha): 0 | Plant response rating, Field Bindweed ([1]; 250 g ai/ha): 0 | Plant response rating, Field Bindweed ([1]; 500 g ai/ha): 15 | Plant response rating, Dayflower, VA ([2]; 31 g ai/ha): 0 | Plant response rating, Dayflower, VA ([2]; 62 g ai/ha): 0 | Plant response rating, Dayflower, VA ([2]; 125 g ai/ha): 0 | Plant response rating, Dayflower, VA ([2]; 250 g ai/ha): 0 | Plant response rating, Dayflower, VA ([2]; 500 g ai/ha): 0 | Plant response rating, Ryegrass, Italian ([3]; 31 g ai/ha): 0 | Plant response rating, Ryegrass, Italian ([3]; 62 g ai/ha): 0 | Plant response rating, Ryegrass, Italian ([3]; 125 g ai/ha): 0 | Plant response rating, Ryegrass, Italian ([3]; 250 g ai/ha): 0 | Plant response rating, Ryegrass, Italian ([3]; 500 g ai/ha): 0 | Plant response rating, Barnyardgrass [7]: 0 | Plant response rating, Rice (rice (Oryza sativa)): 0 | Plant response rating, Ducksalad [8]: 0 | Plant response rating, Sedge, Umbrella [9]: 0

Fc1cccc(NN=C(c2ccccc2)c2c[nH]nc2-c2cc(Cl)cc(Cl)c2)c1 [Compound 58]
Plant response rating, Field Bindweed ([1]; 31 g ai/ha): 0 | Plant response rating, Field Bindweed ([1]; 62 g ai/ha): 0 | Plant response rating, Field Bindweed ([1]; 125 g ai/ha): 0 | Plant response rating, Field Bindweed ([1]; 250 g ai/ha): 0 | Plant response rating, Field Bindweed ([1]; 500 g ai/ha): 10 | Plant response rating, Dayflower, VA ([2]; 31 g ai/ha): 0 | Plant response rating, Dayflower, VA ([2]; 62 g ai/ha): 0 | Plant response rating, Dayflower, VA ([2]; 125 g ai/ha): 0 | Plant response rating, Dayflower, VA ([2]; 250 g ai/ha): 0 | Plant response rating, Dayflower, VA ([2]; 500 g ai/ha): 0 | Plant response rating, Ryegrass, Italian ([3]; 31 g ai/ha): 0 | Plant response rating, Ryegrass, Italian ([3]; 62 g ai/ha): 0 | Plant response rating, Ryegrass, Italian ([3]; 125 g ai/ha): 0 | Plant response rating, Ryegrass, Italian ([3]; 250 g ai/ha): 0 | Plant response rating, Ryegrass, Italian ([3]; 500 g ai/ha): 0 | Plant response rating, Barnyardgrass [7]: 0 | Plant response rating, Rice (rice (Oryza sativa)): 0 | Plant response rating, Ducksalad [8]: 0 | Plant response rating, Sedge, Umbrella [9]: 0
